# Measured values as given in patent US4209517A, “α-Ethylenic alcohols and ketones, their preparation, and their use as medicaments” (Unicler, priority 1978, dated 1980).
# Key:
# [1] = system: blepharospasm caused by reserpine; experiment: Antagonism to reserpine (blepharospasm); type: in vivo; parameters: key: The inhibition of blepharospasm is marked from 0 to +++; ±: The inhibition of blepharospasm is marked from 0 to +++; The inhibition of blepharospasm is marked from 0 to +++; The inhibition of blepharospasm is marked from 0 to +++; details: male Swiss mice, before reserpine 5 mg/kg IP
# Procedure: (Chen G., and Bohner B., (1961) J. pharmacol. Exptl. Therap. 131, 179).
# Reserpine administered to mice in a dosage of 5 mg/kg intraperitoneally produces in the first few hours a more or less complete closure of the eyelids in most of the animals. The administration of certain products inhibits the blepharospasm caused by reserpine.
# Male Swiss mice are distributed into batches of 10 mice and each experiment involves at least 3 batches:
# a control batch that receives only the solvent and reserpine
# a batch treated with a reference product: we selected Imipramine
# a treated batch receiving the product being tested.
# The experimental products are administered intraperitoneally either 30 minutes or 2 hours before the intraperitoneal injection of reserpine at a dosage of 5 mg/kg, in order to study their activity as a function of time.
# The degree of ptosis for each eye and each animal is observed every 30 minutes for 4 to 5 hours, using RUBIN's score method. The activity of the product is determined by comparison with the result obtained with the treated control batch. The inhibition of blepharospasm is marked from 0 to +++.
# [2] = Toxicity: LD50 in mice, intraperitoneal route (Log-Probits method of Miller and Tainter); details: mouse, in vivo, IP
# Procedure: The LD50 of the products was measured in mice by the intraperitoneal route in accordance with the "Log-Probits" method of Miller and Tainter (Proc. Soc. Exptl. Biol. Med. 1944; 57, 261-264).
# [3] = system: epileptic attack by electric shock; experiment: Anti-convulsant action: electric shock; type: in vivo; details: Rattus norvegicus, 0.5 h, male rats, 30 min before 30 volts for 0.5 second, read-out: Electric shock: percentage protection (P); for responders at 200 mg/kg: 200 mg/kg IP; for responders at 100 mg/kg: 100 mg/kg IP
# Procedure: The application of an electric current of 30 volts for 0.5 second to the cerebral hemispheres produces an epileptic attack.
# Male rats each weighing 180 to 200 g receive intraperitoneally the solvent or the product being investigated. Thirty minutes later the animals are subjected to electric shocks. It is noted whether the attack is complete or incomplete, and the percentage protection (P) conferred by the product administered is determined.
# [4] = system: attack caused by pentetrazol; experiment: Anti-convulsant action: attack caused by pentetrazol; type: in vivo; details: mice, 30 min before pentetrazol 125 mg/kg IP
# Procedure: A convulsive attack is caused by pentetrazol which, when injected into mice intraperitoneally at a dosage of 125 mg/kg, produces 100% mortality in 5 to 7 minutes.
# Mice, each weighing about 20 g, are given the product being studied intraperitoneally, thirty minutes before the administration of pentetrazol.
# [5] = system: narcosis produced by hexobarbital; experiment: Modification of narcosis produced by hexobarbital; type: in vivo; details: Mus musculus, 0.5 h, mice, half an hour before hexobarbital 70 mg/kg, read-out: Narcosis potentialisation T (percentage increase in sleeping time induced by hexobarbital); for change in vivo at 200 mg/kg: 200 mg/kg IP; for change in vivo at 100 mg/kg: 100 mg/kg IP
# Procedure: Mice, each weighing about 20 g, received the product under investigation by the intraperitoneal route. Half an hour later sodium hexobarbital was injected by the same route at a dosage of 70 mg/kg.
# The animals were placed on a hot plate kept at a constant temperature of 27° C. It is considered that sleep is established when a mouse, placed in the dorsal decubitus, is incapable of turning over and standing on its paws.
# The narcosis potentialisation is evaluated by the percentage increase in sleeping time induced by hexobarbital (T).
# central nervous system = experiment: Activity on the central nervous system (overall conclusion of the pharmacological tests); type: in vivo; details: conclusion in words
# Source text: This was investigated by observing the behaviour of animals, by studying the modifications in narcosis produced by hexobarbital and studying the anti-convulsant power.
# [6] = Remarks on the hydrochloride (Table I); type: physicochemical; details: hydrochloride column of Table I
# [7] = Mus musculus, 0.5 h, 200 mg/kg IP, read-out: Pentrazole: percentage protection (P)
smiles,measurement,setting,value
CC(C)=CC(=O)C=Cc1ccc2c(c1)OCO2 [compound 1003],Inhibition of blepharospasm caused by reserpine,[1]; 200 mg/kg IP,0
same,LD50,[2],2000 mg/kg
same,responders at 200 mg/kg,[3],0%
same,responders at 200 mg/kg,[4]; [7],0%
same,Pentrazole: time of death as multiple of that (t) of the control group,[4]; 200 mg/kg IP,15 t ×
same,change in vivo at 200 mg/kg,[5],223%
CC(C)=CCCC(=O)C=Cc1ccc2c(c1)OCO2 [compound 998],Inhibition of blepharospasm caused by reserpine,[1]; 200 mg/kg IP,0
same,LD50,[2],2000 mg/kg
same,responders at 200 mg/kg,[3],30%
same,responders at 200 mg/kg,[4]; [7],0%
same,change in vivo at 200 mg/kg,[5],490%
OC(C=Cc1ccc2c(c1)OCO2)CN1CCOCC1 (centres unmarked) [compound 997],Inhibition of blepharospasm caused by reserpine,[1]; 50 mg/kg IP,+++
same,Usefulness as anti-depressants,central nervous system,particularly useful as anti-depressants
same,LD50,[2],500 mg/kg
same,responders at 50 mg/kg,[3]; 50 mg/kg IP,60%
same,responders at 50 mg/kg,"[4]; Mus musculus, 0.5 h, 50 mg/kg IP, read-out: Pentrazole: percentage protection (P)",0%
same,Pentrazole: time of death as multiple of that (t) of the control group,[4]; 50 mg/kg IP,2 t ×
same,change in vivo at 50 mg/kg,[5]; 50 mg/kg IP,0%
CC(CN1CCN(C)CC1)C(O)C=Cc1ccc2c(c1)OCO2 (centres unmarked) [compound 1202],Inhibition of blepharospasm caused by reserpine,[1]; 25 mg/kg IP,0
same,LD50,[2],250 mg/kg
same,responders at 25 mg/kg,[3]; 25 mg/kg IP,10%
same,responders at 25 mg/kg,"[4]; Mus musculus, 0.5 h, 25 mg/kg IP, read-out: Pentrazole: percentage protection (P)",10%
same,Pentrazole: time of death as multiple of that (t) of the control group,[4]; 25 mg/kg IP,2 t ×
same,change in vivo at 25 mg/kg,[5]; 25 mg/kg IP,5%
O=C(C=Cc1ccc2c(c1)OCO2)CN1CCOCC1 [compound 996],Inhibition of blepharospasm caused by reserpine,[1]; 75 mg/kg IP,+
same,Usefulness as anti-depressants,central nervous system,particularly useful as anti-depressants
same,LD50,[2],750 mg/kg
same,responders at 75 mg/kg,[3]; 75 mg/kg IP,50%
same,responders at 75 mg/kg,"[4]; Mus musculus, 0.5 h, 75 mg/kg IP, read-out: Pentrazole: percentage protection (P)",0%
same,change in vivo at 75 mg/kg,[5]; 75 mg/kg IP,106%
O=C(C=Cc1ccc2c(c1)OCO2)C1CCCCC1 [compound 1036],LD50,[2],2000 mg/kg
same,responders at 200 mg/kg,[3],0%
same,responders at 200 mg/kg,[4]; [7],10%
same,Pentrazole: time of death as multiple of that (t) of the control group,[4]; 200 mg/kg IP,2.6 t ×
same,change in vivo at 200 mg/kg,[5],135%
CC(C(=O)C=Cc1ccc2c(c1)OCO2)N1CCOCC1 (centres unmarked) [compound 1321],Inhibition of blepharospasm caused by reserpine,[1]; 85 mg/kg IP,0
same,LD50,[2],850 mg/kg
same,responders at 85 mg/kg,[3]; 85 mg/kg IP,50%
same,responders at 85 mg/kg,"[4]; Mus musculus, 0.5 h, 85 mg/kg IP, read-out: Pentrazole: percentage protection (P)",20%
same,change in vivo at 85 mg/kg,[5]; 85 mg/kg IP,227%
CC(C(O)C=Cc1ccc2c(c1)OCO2)N1CCOCC1 (centres unmarked) [compound 1340],LD50,[2],400 mg/kg
same,responders at 40 mg/kg,[3]; 40 mg/kg IP,10%
same,responders at 40 mg/kg,"[4]; Mus musculus, 0.5 h, 40 mg/kg IP, read-out: Pentrazole: percentage protection (P)",10%
OC(C=Cc1ccc2c(c1)OCO2)C1CCCCC1 (centres unmarked) [compound 1037],LD50,[2],1000 mg/kg
same,responders at 100 mg/kg,[3],0%
same,change in vivo at 100 mg/kg,[5],225%
OC(C=Cc1ccc2c(c1)OCO2)CCCN1CCCCC1 (centres unmarked) [AB 754],Hygroscopicity of hydrochloride,[6],hygroscopic
CC(CN1CCOCC1)C(O)C=Cc1ccc2c(c1)OCO2 (centres unmarked) [compound 1156],Inhibition of blepharospasm caused by reserpine,[1]; 60 mg/kg IP,0
same,LD50,[2],600 mg/kg
same,responders at 60 mg/kg,[3]; 60 mg/kg IP,50%
same,responders at 60 mg/kg,"[4]; Mus musculus, 0.5 h, 60 mg/kg IP, read-out: Pentrazole: percentage protection (P)",10%
same,Pentrazole: time of death as multiple of that (t) of the control group,[4]; 60 mg/kg IP,1.6 t ×
same,change in vivo at 60 mg/kg,[5]; 60 mg/kg IP,79%
CC(C)=CCCC(O)C=Cc1ccc2c(c1)OCO2 (centres unmarked) [compound 999],Inhibition of blepharospasm caused by reserpine,[1]; 50 mg/kg IP,0
same,LD50,[2],1000 mg/kg
same,responders at 100 mg/kg,[3],90%
same,responders at 100 mg/kg,"[4]; Mus musculus, 0.5 h, 100 mg/kg IP, read-out: Pentrazole: percentage protection (P)",0%
same,Pentrazole: time of death as multiple of that (t) of the control group,[4]; 100 mg/kg IP,5 t ×
same,change in vivo at 100 mg/kg,[5],201%
CC(CN1CCN(C)CC1)C(=O)C=Cc1ccc2c(c1)OCO2 (centres unmarked) [compound 1201],Inhibition of blepharospasm caused by reserpine,[1]; 7.5 mg/kg IP,±
same,LD50,[2],75 mg/kg
same,responders at 7.5 mg/kg,[3]; 7.5 mg/kg IP,10%
same,responders at 7.5 mg/kg,"[4]; Mus musculus, 0.5 h, 7.5 mg/kg IP, read-out: Pentrazole: percentage protection (P)",0%
same,Pentrazole: time of death as multiple of that (t) of the control group,[4]; 7.5 mg/kg IP,2 t ×
same,change in vivo at 7.5 mg/kg,[5]; 7.5 mg/kg IP,17%
